Tested on: NOD mice
Assay: Diabetes-free survival of NOD mice (Kaplan-Meier analysis, log-rank test)
Type: in vivo
Conditions: two i.p. treatments, 2 weeks between doses, 50 μg per mouse
Description: With continued reference to FIG. 1, as another non-limiting example, administration 116 of composition of the engineered virus-based nanoparticle for a treatment of an autoimmune disease may be done to nonobese diabetic (NOD) mice. In another non-limiting example, administration 116 of composition of the engineered virus-based nanoparticle for a treatment of an autoimmune disease may be done to any animal disclosed in this disclosure, such as but not limited to a human. Four-week-old female NOD mice may be obtained from Charles River Laboratories and may be housed under specific pathogen-free conditions in the animal facility at the University of Perugia, with ad libitum access to water and food. NOD mice may be randomly subdivided into four groups. In group 1 (n=18), CPMV·p524opt [50 μg per mouse, resuspended in 100 μl of phosphate-buffered saline (PBS)] may be injected twice intraperitoneally, with 2 weeks between doses. […] Mice may be monitored for the appearance of clinical signs of diabetes and may be euthanized when the disease was confirmed by glucosuria. […]
With continued reference to FIG. 1, in some embodiments, processor 104 may determine critical administration 124 as a function of a statistical comparison between administration groups 132. […] As a non-limiting example, a Kaplan-Meier analysis may be calculated using the following formula: […]

In the case of “p524opt: p524 sequence adjusted to a pI of 8.59 (SEQ ID NO. 2), synthetic peptide given with IFA (DSRLSKVAPVIKARMMED)”, the “protection from the onset of diabetes (in words)” value is reported as “no protective effect”.

Source: patent US12527849B2, “Apparatus for determining administration form of a composition of an engineered virus-based nanoparticle for a treatment of an autoimmune condition” (Diamante Srl, priority 2021, dated 2026)
